Read-outs that look alike come from different tables or passages of the source.

The nature of data set [1]: In vitro drug release in SGF for 48 h. The format is physicochemical. The note with it: 37° C., casein 0-5% (w/v). The procedure:
In vitro release study was conducted in SGF for 48 h. In some experiments, the study was conducted in SGF, followed by SIF, where the total duration in SGF and SIF is 48 h. Each microcapsule sample (20 mg) was added to a bottle containing SGF or SIF medium (20 mL). Both SGF and SIF bottles were placed in a 37° C. rotating incubator. At different time points, half of the medium (10 mL) in each bottle was extracted and replaced with 10 mL new medium. The time points included intervals of hours within a 48-hour period. The drug content in the extracted medium was analyzed using RP-HPLC with the procedure mentioned in Example 1 for determining encapsulation efficiency.

For data set [2] the following is noted: cited from earlier work.
Data set [3] can be described thus: Plasma pharmacokinetics after oral gavage in mice. The note with it: for MRT: mouse, plasma, oral, Table 3. The format is in vivo. The procedure:
The experimental mice were divided into two groups (control and F2) each comprising of five animals. Control formulation (as a solution) was prepared fresh each experimental day in 0.6% methyl cellulose diluted with saline solution. Mice were subsequently administered with 200 ul (control) or 300 μl (pellet) single dose of drug solution at LD:CD:ENT=10:2.5:20 mg·kg^−1 (Group 1, conventional formulation) and LD:CD:ENT=10:2.5:20 mg·kg^−1 (Group 2, F2 via oral gavage using a feeding syringe. At stipulated time points of 0.25, 0.5, 1, 2, 4, 8, 12, 24 hr, the mice were euthanized and blood was collected via cardiac puncture with ethylenediaminetetraacetic acid (EDTA) as the anticoagulant. The blood samples were then centrifuged (4,500 rpm) for 10 min at 25° C. to obtain the plasma. In addition, the brain was harvested and flash freeze in liquid nitrogen. Samples were stored in −80° C. before further analysis via LC/MS. Analysis of drugs in plasma and brain was conducted using LC/MS (Ribeiro et al., (2015). Bioanalysis, 7, 207-220). An Agilent 1290 HPLC system with an Agilent 6120 Quadrupole Mass Spectrometer was used to measure plasma and brain concentrations of drugs. The mobile phase consisted of a gradient of (A) 0.1% (v/v) formic acid (FA) and a mixture of ACN:MeOH (90:10, v/v) containing 0.1% (v/v) FA.
XBridge C8 column (150×4.6 mm; particle size 5 μm) was used at 30° C. The injection volume of samples was 20 μl. Plasma and brain extracted solution were mixed with internal standard and extracted by solid-phase extraction. The calibration curves were linear over the range of 2 to 2000 ng/mL for LD, 2 to 400 ng/mL for CD and 5 to 3000 ng/mL for ENT.

The mark [4] stands for this setting: casein-microcapsule versus control.

`C[C@@](Cc1ccc(O)c(O)c1)(NN)C(=O)O` [CD, carbidopa]: the “Release rate of drug from microcapsules versus casein concentration” value in data set [1] is listed as “independent of casein concentration”.

In the case of `CC[C@@H](CO)NCCN[C@@H](CC)CO` [ETH, ethambutol], in data set [1], the “Release rate of drug from microcapsules versus casein concentration” value is recorded as “independent of casein concentration”. Also, the Log P (commonly the decadic logarithm of the partition coefficient of the neutral form, usually between octanol and water) in data set [2] is listed as −0.14.

Consider `NNC(=O)c1ccncc1` [ISO, isoniazid], for which the “Release rate of drug from microcapsules versus casein concentration” value in data set [1] was “independent of casein concentration”. Besides, the “Log P” value in data set [2] is −0.7.

For `N[C@@H](Cc1ccc(O)c(O)c1)C(=O)O` [LD, levodopa], the “Release rate of drug from microcapsules versus casein concentration” value in data set [1] is reported as “independent of casein concentration”. Moreover, in data set [3] (setting [4]), the “increase of MRT of levodopa” value is given as approximately 4 × and the “increase of bioavailability (AUC) of levodopa” value came to 2.8 ×. The MRT (in general, the average time that molecules of a dose stay in the body) in data set [3] (given as casein-microcapsule, read-out: mean residence time (MRT) of levodopa, casein-microcapsule) was 10.1 h. For the same compound, the MRT in data set [3] (given as control formulation, read-out: mean residence time (MRT) of levodopa, control) was found to be 2.6 h.

`CN(C)C(=N)N=C(N)N` [MET, metformin]: the “Release rate of drug from microcapsules versus casein concentration” value in data set [1] is given as “independent of casein concentration”.

Consider `CO[C@H]1/C=C/O[C@@]2(C)Oc3c(C)c(O)c4c(O)c(c(/C=N/N5CCN(C)CC5)c(O)c4c3C2=O)NC(=O)/C(C)=C\C=C\[C@H](C)[C@H](O)[C@@H](C)[C@@H](O)[C@@H](C)[C@H](OC(C)=O)[C@@H]1C` [RIF, rifampicin], for which the lipophilicity (Log P) in data set [2] is listed as 4.24.
